Source: ChEMBL document CHEMBL1255562, “6,7-Dihydroxy-4-phenylcoumarin as inhibitor of aldose reductase 2” (Bioorg Med Chem Lett, 2010)

How the values were obtained:
[1] = target: T1, Sorbitol dehydrogenase (Homo sapiens, UniProt Q00796); assay: Inhibition sorbitol dehydrogenase by spectrophotometric analysis
T1 sequence (Q00796 whole entry): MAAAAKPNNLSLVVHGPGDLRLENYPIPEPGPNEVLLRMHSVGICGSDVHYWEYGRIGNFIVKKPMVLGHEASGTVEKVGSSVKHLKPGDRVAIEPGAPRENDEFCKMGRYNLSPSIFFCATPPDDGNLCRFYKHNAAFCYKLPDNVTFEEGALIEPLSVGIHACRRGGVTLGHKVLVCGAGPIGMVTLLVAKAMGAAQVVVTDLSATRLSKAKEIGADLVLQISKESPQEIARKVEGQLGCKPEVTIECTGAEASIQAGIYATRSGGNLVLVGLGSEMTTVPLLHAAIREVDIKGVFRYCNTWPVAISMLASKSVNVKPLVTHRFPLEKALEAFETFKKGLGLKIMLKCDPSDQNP

[2] = target: Aldo-keto reductase family 1 member B1 (Homo sapiens, UniProt P15121); assay: Inhibition human recombinant […] by spectrophotometric analysis
[3] = Selectivity index, ratio of IC50 for sorbitol dehydrogenase to IC50 for kidney aldose reductase 2
[4] = Selectivity index, ratio of IC50 for human recombinant […] to IC50 for kidney aldose reductase 2
[5] = Inhibition kidney aldose reductase 2 by spectrophotometric analysis
[6] = organism: Rattus norvegicus; assay: Reduction of galactitol accumulation in Wistar rat lens after 24 hrs; type: functional, tissue-based; conditions: Lens of camera-type eye

| SMILES | IC50 [1] [µM] | IC50 [2] [µM] | Ratio IC50 [3] | Ratio IC50 [4] | IC50 [5] [µM] | Activity [6] |
| --- | --- | --- | --- | --- | --- | --- |
| COc1ccc2ccc(=O)oc2c1 [HERNIARIN] | 124 | – | – | – | – | – |
| O=c1ccc2cc(O)ccc2o1 [6-HYDROXYCOUMARIN] | > 400 | 171 | > 2.56 | 1.1 | 156 | – |
| O=c1ccc2ccccc2o1 [COUMARIN] | > 400 | > 500 | – | – | > 400 | – |
| CC(/C=C1\SC(=S)N(CC(=O)O)C1=O)=C\c1ccccc1 | 67.7 | – | – | – | 1.4 | – |
| Cc1cc(=O)oc2cc(O)ccc12 [HYMECROMONE] | 153 | 24.5 | 1.7 | 0.27 | 89.9 | – |
| O=c1cc(O)c2ccccc2o1 [4-HYDROXYCOUMARINS] | > 400 | > 400 | > 9.88 | > 9.88 | 40.5 | – |
| O=c1cc(-c2ccccc2)c2ccc(O)cc2o1 | 70.7 | 2.4 | 1.93 | 0.07 | 36.7 | – |
| O=C(O)Cc1cc(=O)oc2cc(O)c(O)cc12 | 335 | 63.3 | 6.27 | 1.19 | 53.4 | – |
| COc1cc2oc(=O)ccc2cc1O [ISOSCOPOLETIN] | > 250 | 56.2 | > 2.48 | 0.56 | 101 | – |
| O=c1oc2ccccc2cc1O [3-HYDROXYCOUMARIN] | 106 | 62 | 0.62 | 0.35 | 172 | – |
| Cc1cc(=O)oc2cc(O)c(O)cc12 [4-METHYLESCULETIN] | 212 | 64.4 | 5.54 | 1.68 | 38.3 | – |
| COc1cc2ccc(=O)oc2cc1O [SCOPOLETIN] | 137 | 74.4 | 2.98 | 1.62 | 46 | – |
| O=c1ccc2ccc(O)cc2o1 [UMBELLIFERONE] | 120 | 22.9 | 1.4 | 0.27 | 85.7 | – |
| O=C(O)Cc1cc(=O)oc2cc(O)ccc12 | 163 | 20.8 | 1.15 | 0.15 | 142 | – |
| O=c1cc(-c2ccccc2)c2cc(O)c(O)cc2o1 | 288 | 66.3 | 30 | 6.9 | 9.6 | Dose-dependent effect |
| O=c1ccc2cc(O)c(O)cc2o1 [ESCULETIN] | 82.9 | 67.2 | 2.27 | 1.84 | 36.5 | – |
